Reference: the OligoGym collection
After the bases stand the sugars from the 5' end (letter, count) and the backbone: PS all phosphorothioate, else s phosphorothioate and o phosphodiester by linkage. Methylation of C is not given here. e = 2'-O-(2-methoxyethyl) (MOE); k = constrained ethyl (cEt); d = 2'-deoxy (DNA); m = 2'-O-methyl

Target: HSD17B13
Details: ASO, HepaRG

Sequence GTAGATGGTAAGTCAA (sugars k3 d10 k3, PS) has a target mRNA inhibition (0.02 µM) of 20%, a target mRNA inhibition (0.078 µM) of 35% and a target mRNA inhibition (0.313 µM) of 55%. The target mRNA inhibition (1 µM) was 86%, the target mRNA inhibition (1.25 µM) was 84% and the target mRNA inhibition (5 µM) was 88%.
In the case of AGTTTATATGGATTTG (sugars k3 d10 k3, PS), the target mRNA inhibition (1 µM) is reported as 67%.
For AATAATAGCTCTATTG (sugars k3 d10 k3, PS), the target mRNA inhibition (1 µM) was 0%.
In the case of AAGGCCTGAAGTTCTG (sugars k3 d10 k3, PS), the target mRNA inhibition (1 µM) is reported as 5%.
For “GACTGCTGCTAGTGCC (sugars k3 d1 m1 d8 k3, PS)”, the target mRNA inhibition (1 µM) was 60%.
For CCACTGTGACGATGTG (sugars k3 d10 k3, PS), the target mRNA inhibition (1 µM) was 0%.
In the case of GCACTCAGCTGCAGTT (sugars k3 d10 k3, PS), the target mRNA inhibition (1 µM) is reported as 29%.
TAGTATAGTTATCTTC (sugars k3 d10 k3, PS) showed a target mRNA inhibition (1 µM) of 28%.
For TCCCCTCAAATAGCCT (sugars k3 d10 k3, PS), the target mRNA inhibition (1 µM) was 60%.
Work on “TGCTGCATTAATGCCA (sugars kkdddddddddkekek, PS)” yielded a target mRNA inhibition (1 µM) of 30%.
Sequence “AGTGCCAAACCAATGT (sugars k3 d1 m1 d8 k3, PS)” has a target mRNA inhibition (1 µM) of 24%.
CAAATGAGGCGGCACT (sugars k3 d10 k3, PS) gave a target mRNA inhibition (1 µM) of 32%.
ACTATCAGAACAGTTC (sugars k3 d10 k3, PS) showed a target mRNA inhibition (1 µM) of 62%.
GCCAAGCTTTGTGTCA (sugars k3 d10 k3, PS) was tested, and the target mRNA inhibition (1 µM) was 64%.
In the case of GTAATGGTAAACTGTA (sugars k3 d10 k3, PS), the target mRNA inhibition (1 µM) is reported as 70%.
TCATATCCAGTAGGTG (sugars k3 d10 k3, PS) gave a target mRNA inhibition (1 µM) of 32%.
With CTTAAACCTTCCCTGT (sugars k3 d10 k3, PS) the target mRNA inhibition (1 µM) was 22%.
TTAGTATTTGGGTGTT (sugars k3 d10 k3, PS) was tested, and the target mRNA inhibition (1 µM) was 29%.
CACCAATGCAGTTTGT (sugars k3 d10 k3, PS) showed a target mRNA inhibition (1 µM) of 42%.
“AGGATAGTCCATGCAA (sugars k3 d9 k3 e1, PS)” gave a target mRNA inhibition (1 µM) of 61%.
Work on “TAGCTGTGCACTCATT (sugars k3 d9 k3 e1, PS)” yielded a target mRNA inhibition (0.02 µM) of 3%, a target mRNA inhibition (0.078 µM) of 0% and a target mRNA inhibition (0.313 µM) of 8%. It also gave a target mRNA inhibition (1 µM) of 66%, a target mRNA inhibition (1.25 µM) of 57% and a target mRNA inhibition (5 µM) of 76%.
Sequence GGGAGGTAGCTTTTGT (sugars k3 d10 k3, PS) has a target mRNA inhibition (1 µM) of 10%.
For “ACAGATTGGAATGCTA (sugars k3 d1 m1 d8 k3, PS)”, the target mRNA inhibition (1 µM) was 70%.
Work on GTTGATAAAATAGGGT (sugars k3 d10 k3, PS) yielded a target mRNA inhibition (1 µM) of 42%.
Work on TGTATAGCTGCATTTC (sugars k3 d10 k3, PS) yielded a target mRNA inhibition (1 µM) of 37%.
In the case of TAAAATATGTCCAGGT (sugars k3 d10 k3, PS), the target mRNA inhibition (1 µM) is reported as 75%.
For “TGATACACCAATGCAG (sugars kkdddddddddkekek, PS)”, the target mRNA inhibition (1 µM) was 62%.
GTAAGAGTCAGTATCC (sugars k3 d10 k3, PS) gave a target mRNA inhibition (1 µM) of 47%.
For “AGCAGAATTGTGAACG (sugars kkdddddddddkekek, PS)”, the target mRNA inhibition (1 µM) was 31%.
TAGAAACTGCTCCTCA (sugars k3 d10 k3, PS) gave a target mRNA inhibition (1 µM) of 32%.
Work on CCCAACCAAACTTCCA (sugars k3 d10 k3, PS) yielded a target mRNA inhibition (1 µM) of 62%.
TCACAAAGTCCCTGAC (sugars k3 d10 k3, PS) gave a target mRNA inhibition (1 µM) of 11%.
TCTCAGAGTTCAGGCA (sugars k3 d10 k3, PS) gave a target mRNA inhibition (1 µM) of 54%.
Sequence TCTACATGGATCCAAC (sugars k3 d10 k3, PS) has a target mRNA inhibition (1 µM) of 26%.
“AAGTTAGCCCCCAGGA (sugars kkdddddddddkekek, PS)” gave a target mRNA inhibition (1 µM) of 12%.
In the case of “AGGTUGAGATAAAGCT (sugars k3 d1 m1 d8 k3, PS)”, the target mRNA inhibition (1 µM) is reported as 58%.
For ATGCTAAAAGCTCACC (sugars k3 d10 k3, PS), the target mRNA inhibition (1 µM) was 50%.
Work on CATACGCATGCGCAGT (sugars k3 d10 k3, PS) yielded a target mRNA inhibition (1 µM) of 60%.
GATTAAGCAGAATTGT (sugars k3 d10 k3, PS) showed a target mRNA inhibition (1 µM) of 37%.
For GAGTTGCACCGTTTTG (sugars k3 d10 k3, PS), the target mRNA inhibition (1 µM) was 48%.
CTCTAGGAGATATAAC (sugars k3 d10 k3, PS) was tested, and the target mRNA inhibition (1 µM) was 49%.
TTAATACGACTTCCTT (sugars k3 d10 k3, PS) showed a target mRNA inhibition (1 µM) of 35%.
ATCCAAAGATGAGAGT (sugars k3 d10 k3, PS) gave a target mRNA inhibition (1 µM) of 5%.
TATAACTGAGCTAGAC (sugars k3 d10 k3, PS) gave a target mRNA inhibition (1 µM) of 53%.
Work on “TCTTGACAATGGTTGA (sugars k3 d9 k3 e1, PS)” yielded a target mRNA inhibition (1 µM) of 61%.
In the case of TCTTCACCTGATTTAG (sugars k3 d10 k3, PS), the target mRNA inhibition (1 µM) is reported as 24%.
Sequence TAAAATAGGGTGCAGT (sugars k3 d10 k3, PS) has a target mRNA inhibition (1 µM) of 58%.
Work on AGATAAAGCTGCCTGC (sugars k3 d10 k3, PS) yielded a target mRNA inhibition (1 µM) of 48%.
With “TATGTAATAGCCAGTA (sugars k3 d9 k3 e1, PS)” the target mRNA inhibition (0.02 µM) was 23%, the target mRNA inhibition (0.078 µM) was 28% and the target mRNA inhibition (0.313 µM) was 53%. The target mRNA inhibition (1 µM) was 82%, the target mRNA inhibition (1.25 µM) was 78% and the target mRNA inhibition (5 µM) was 93%.
With “ATAGUCCATGCAAAAG (sugars k3 d1 m1 d8 k3, PS)” the target mRNA inhibition (1 µM) was 57%.
With AGCTCCAGTAATGAGA (sugars k3 d10 k3, PS) the target mRNA inhibition (1 µM) was 26%.
For GGATGTTAGGACCCAG (sugars k3 d10 k3, PS), the target mRNA inhibition (0.02 µM) was 4%, the target mRNA inhibition (0.078 µM) was 18% and the target mRNA inhibition (0.313 µM) was 69%. The target mRNA inhibition (1 µM) was 81%, the target mRNA inhibition (1.25 µM) was 89% and the target mRNA inhibition (5 µM) was 93%.
